Structures are written as SMILES.

Targets include BMPR1A (UniProt P36894); PIK3R4 (UniProt Q99570); SYK (UniProt P43405); UniProt P19525.
What all share (assay): pIC50, kinobeads binding competition
What all share (conditions): cell material: Jurkat lysate

In the next test the target is T1, ICK (UniProt Q9UPZ9).
T1 sequence (whole entry): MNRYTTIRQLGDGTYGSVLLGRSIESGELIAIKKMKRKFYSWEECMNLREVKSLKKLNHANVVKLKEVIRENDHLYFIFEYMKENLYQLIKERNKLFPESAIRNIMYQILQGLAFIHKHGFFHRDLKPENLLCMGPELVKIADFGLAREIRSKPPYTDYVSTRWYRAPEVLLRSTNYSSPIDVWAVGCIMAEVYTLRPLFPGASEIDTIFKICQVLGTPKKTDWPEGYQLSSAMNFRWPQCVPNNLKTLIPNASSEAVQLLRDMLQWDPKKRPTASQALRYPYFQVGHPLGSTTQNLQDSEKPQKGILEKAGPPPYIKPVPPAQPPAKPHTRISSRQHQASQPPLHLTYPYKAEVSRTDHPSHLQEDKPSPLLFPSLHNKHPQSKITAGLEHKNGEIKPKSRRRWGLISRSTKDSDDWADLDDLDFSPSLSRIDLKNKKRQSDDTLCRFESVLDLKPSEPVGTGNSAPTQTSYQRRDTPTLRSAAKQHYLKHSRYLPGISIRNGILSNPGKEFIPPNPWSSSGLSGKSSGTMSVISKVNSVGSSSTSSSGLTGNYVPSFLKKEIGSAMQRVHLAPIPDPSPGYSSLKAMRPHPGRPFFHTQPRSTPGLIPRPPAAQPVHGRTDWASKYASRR

In the next test the target is T2, TP53RK (UniProt Q96S44).
T2 sequence (whole entry): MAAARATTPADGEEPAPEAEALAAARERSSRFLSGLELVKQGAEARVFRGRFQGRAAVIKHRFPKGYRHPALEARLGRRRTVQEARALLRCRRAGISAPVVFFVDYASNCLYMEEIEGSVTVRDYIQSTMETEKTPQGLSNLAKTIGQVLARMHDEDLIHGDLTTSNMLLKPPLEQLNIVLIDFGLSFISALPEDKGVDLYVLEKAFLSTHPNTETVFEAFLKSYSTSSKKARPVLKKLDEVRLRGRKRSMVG

In another test the target is T3, TXK (UniProt P42681).
T3 sequence (whole entry): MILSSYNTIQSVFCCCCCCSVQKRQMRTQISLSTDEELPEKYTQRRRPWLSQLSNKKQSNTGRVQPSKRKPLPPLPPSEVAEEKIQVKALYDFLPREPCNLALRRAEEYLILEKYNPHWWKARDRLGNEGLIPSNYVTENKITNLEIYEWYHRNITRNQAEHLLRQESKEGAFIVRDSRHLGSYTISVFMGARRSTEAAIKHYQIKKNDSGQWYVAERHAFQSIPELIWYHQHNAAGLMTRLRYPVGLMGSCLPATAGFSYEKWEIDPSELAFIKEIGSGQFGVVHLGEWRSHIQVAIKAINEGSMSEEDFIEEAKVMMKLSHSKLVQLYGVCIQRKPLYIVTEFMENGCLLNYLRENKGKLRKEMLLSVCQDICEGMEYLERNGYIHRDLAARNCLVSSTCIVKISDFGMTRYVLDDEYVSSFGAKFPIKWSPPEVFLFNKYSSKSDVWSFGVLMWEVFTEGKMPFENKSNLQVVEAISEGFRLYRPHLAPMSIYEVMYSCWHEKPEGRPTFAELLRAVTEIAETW

Another test has as its target T4, UniProt O43318.
T4 sequence (whole entry): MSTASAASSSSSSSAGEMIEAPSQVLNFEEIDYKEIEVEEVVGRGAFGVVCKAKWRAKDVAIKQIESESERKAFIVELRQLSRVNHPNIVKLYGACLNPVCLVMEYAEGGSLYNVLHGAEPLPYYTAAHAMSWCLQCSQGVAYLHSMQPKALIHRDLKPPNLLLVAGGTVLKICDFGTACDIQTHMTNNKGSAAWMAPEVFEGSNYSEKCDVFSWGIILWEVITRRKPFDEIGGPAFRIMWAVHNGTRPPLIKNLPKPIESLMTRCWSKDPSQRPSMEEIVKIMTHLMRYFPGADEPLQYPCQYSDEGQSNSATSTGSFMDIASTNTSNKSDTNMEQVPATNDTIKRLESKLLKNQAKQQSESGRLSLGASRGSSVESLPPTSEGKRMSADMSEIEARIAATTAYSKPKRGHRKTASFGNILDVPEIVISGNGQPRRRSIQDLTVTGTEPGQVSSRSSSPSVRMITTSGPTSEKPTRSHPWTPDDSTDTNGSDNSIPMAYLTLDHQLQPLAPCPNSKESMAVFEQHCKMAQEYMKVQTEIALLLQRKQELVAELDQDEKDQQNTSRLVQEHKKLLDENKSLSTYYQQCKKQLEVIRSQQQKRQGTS

A further test addresses T5, UniProt Q8TBX8.
T5 sequence (whole entry): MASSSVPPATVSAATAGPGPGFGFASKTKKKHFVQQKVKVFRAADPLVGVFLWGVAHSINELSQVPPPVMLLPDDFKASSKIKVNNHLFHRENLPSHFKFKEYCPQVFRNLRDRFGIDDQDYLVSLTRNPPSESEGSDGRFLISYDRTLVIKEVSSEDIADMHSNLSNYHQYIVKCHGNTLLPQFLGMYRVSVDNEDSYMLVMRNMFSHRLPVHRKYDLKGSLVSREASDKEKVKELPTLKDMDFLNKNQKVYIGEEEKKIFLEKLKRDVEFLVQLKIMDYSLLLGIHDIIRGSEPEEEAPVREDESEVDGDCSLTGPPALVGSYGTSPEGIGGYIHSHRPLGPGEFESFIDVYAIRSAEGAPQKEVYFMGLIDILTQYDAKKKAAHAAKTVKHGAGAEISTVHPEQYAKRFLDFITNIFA

Sequence of UniProt P19525 (P19525 whole entry): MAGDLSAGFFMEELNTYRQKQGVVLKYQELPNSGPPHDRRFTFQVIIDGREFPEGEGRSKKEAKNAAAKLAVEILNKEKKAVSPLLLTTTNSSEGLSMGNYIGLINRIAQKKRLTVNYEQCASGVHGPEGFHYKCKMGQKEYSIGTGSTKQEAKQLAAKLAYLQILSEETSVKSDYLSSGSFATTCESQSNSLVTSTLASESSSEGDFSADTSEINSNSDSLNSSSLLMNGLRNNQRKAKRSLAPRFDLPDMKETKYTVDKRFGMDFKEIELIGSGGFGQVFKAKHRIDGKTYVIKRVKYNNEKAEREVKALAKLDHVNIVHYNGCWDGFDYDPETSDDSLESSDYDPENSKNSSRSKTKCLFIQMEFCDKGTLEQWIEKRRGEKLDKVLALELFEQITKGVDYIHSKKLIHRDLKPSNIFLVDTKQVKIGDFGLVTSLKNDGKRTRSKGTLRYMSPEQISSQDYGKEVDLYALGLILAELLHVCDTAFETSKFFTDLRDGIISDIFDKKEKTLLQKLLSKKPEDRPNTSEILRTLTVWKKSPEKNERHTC
Sequence of PIK3R4 (Q99570 whole entry): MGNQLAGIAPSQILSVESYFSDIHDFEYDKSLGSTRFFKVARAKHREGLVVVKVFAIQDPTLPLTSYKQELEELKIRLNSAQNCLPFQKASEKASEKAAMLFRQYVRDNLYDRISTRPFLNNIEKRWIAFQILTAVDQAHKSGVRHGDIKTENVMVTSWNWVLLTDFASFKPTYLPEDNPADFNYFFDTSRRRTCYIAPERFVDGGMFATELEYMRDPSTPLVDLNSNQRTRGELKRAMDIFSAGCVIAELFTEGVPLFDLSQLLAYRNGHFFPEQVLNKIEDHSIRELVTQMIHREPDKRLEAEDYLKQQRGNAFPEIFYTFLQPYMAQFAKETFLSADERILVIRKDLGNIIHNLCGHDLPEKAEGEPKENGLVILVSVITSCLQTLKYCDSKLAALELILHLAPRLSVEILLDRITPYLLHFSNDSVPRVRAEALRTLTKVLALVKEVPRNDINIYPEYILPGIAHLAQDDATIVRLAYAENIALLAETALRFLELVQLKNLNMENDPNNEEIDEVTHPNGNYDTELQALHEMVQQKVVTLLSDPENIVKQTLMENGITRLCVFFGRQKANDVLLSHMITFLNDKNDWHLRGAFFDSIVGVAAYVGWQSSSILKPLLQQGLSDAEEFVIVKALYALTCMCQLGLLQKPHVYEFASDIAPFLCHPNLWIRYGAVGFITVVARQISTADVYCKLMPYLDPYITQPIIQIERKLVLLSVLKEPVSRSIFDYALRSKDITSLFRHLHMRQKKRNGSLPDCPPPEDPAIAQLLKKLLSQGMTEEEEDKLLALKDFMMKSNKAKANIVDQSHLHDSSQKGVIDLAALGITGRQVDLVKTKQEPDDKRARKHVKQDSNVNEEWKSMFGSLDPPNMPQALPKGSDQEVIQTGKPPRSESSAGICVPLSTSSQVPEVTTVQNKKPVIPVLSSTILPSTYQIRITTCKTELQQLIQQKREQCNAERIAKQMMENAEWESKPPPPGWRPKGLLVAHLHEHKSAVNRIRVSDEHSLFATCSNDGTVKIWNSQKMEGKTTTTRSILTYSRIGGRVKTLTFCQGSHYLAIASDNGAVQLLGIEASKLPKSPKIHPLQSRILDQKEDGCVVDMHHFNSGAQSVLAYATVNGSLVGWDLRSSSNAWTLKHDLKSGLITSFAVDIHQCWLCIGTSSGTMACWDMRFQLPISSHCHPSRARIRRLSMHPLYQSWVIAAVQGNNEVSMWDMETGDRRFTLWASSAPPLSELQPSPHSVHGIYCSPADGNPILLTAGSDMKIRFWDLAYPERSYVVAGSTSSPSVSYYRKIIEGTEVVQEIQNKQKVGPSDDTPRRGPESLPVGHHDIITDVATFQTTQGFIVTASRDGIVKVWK
Sequence of BMPR1A (P36894 whole entry): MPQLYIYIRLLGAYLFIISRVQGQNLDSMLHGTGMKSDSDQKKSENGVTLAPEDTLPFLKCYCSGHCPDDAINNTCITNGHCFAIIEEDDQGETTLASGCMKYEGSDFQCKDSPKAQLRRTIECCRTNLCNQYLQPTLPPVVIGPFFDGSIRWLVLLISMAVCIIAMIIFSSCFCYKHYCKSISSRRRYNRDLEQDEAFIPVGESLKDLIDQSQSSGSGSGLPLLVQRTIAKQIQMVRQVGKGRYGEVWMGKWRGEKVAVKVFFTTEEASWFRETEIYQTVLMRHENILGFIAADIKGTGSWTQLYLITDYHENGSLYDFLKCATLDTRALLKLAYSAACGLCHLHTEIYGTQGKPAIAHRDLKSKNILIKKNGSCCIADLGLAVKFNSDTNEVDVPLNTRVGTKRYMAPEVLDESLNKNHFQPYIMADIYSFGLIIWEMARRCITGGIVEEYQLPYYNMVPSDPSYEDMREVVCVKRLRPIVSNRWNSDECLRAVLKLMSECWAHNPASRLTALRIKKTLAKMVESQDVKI

Take `CCc1cnn2c(NCc3ccc[n+]([O-])c3)cc(N3CCCC[C@H]3CCO)nc12` [dinaciclib]: the pIC50 (usually the negative decadic logarithm of the IC50, by convention in mol/L) is < 4.52 at BMPR1A; 6.39 at ICK; < 4.52 on PIK3R4; < 4.52 at SYK; < 4.52 at TP53RK; < 4.52 on TXK. Further, the pIC50 at UniProt O43318, on UniProt P19525 and on UniProt Q8TBX8 was < 4.52 each time.

For the origin of these results see the supplement of paper PMC12076712.
